Results reported in US20200197392A1, “COMPOSITIONS AND METHODS FOR TREATING TUBEROUS SCLEROSIS COMPLEX” (THE BRIGHAM & WOMEN'S HOSPITAL, INC., priority 2017, published 2020).
pIC50: −log10 of the molar value. Like-named read-outs stand apart in the source and are kept apart here.

Tests used:
HCV29 cells [1] = settings: 30 nM THZ1, 1 mM GSH
TSC-null cells [2] = assay: Antioxidant rescue of THZ1-induced cell death (Trypan blue); assay type: cell-based; settings: THZ1 30 nM, NAC 2 mM or GSH-MEE 2 mM, 48 hr
Source text: (§1) FIGS. 8A-8G. Reduction of glutathione and increase in ROS in THZ1-treated TSC null cells. […] Arrow indicates glutathione. (n=3 samples) (FIG. 8B) Heat map showing the top 15 metabolites with greatest change in 621.101.TSC2− cells, with comparison to control and similarly-treated 621.101.TSC2-addback cells (n=3 samples). The scale is log 2 fold-change. […] Each data point represents the mean±SEM of three independent experiments (** p<0.01; *** p<0.001). […] Each data point represents the mean±SEM of three independent experiments (* p<0.05; ** p<0.01; *** p<0.001). […] Phase contrast images are at top. Cell death (%) is shown at bottom for these treatments as well as RAP (rapamycin 20 nM) and NAC (2 mM) for HCV.29.TSC1− and 621-101.TSC2− after 48 hours of treatment, measured by Trypan blue staining. Each data point represents the mean±SEM of three independent experiments (* p<0.05; ** p<0.01; *** p<0.001).
FIGS. 9A-9C. […] (n=3 samples,*** p<0.0005). […] Each data point represents the mean±SEM of three independent experiments (** p<0.01; *** p<0.001). (FIG. 9C) Cell death of MEF.TSC2− after 48 hours of treatment with indicated compounds was measured via Trypan blue staining assay. Each data point represents the mean±SEM of three independent experiments (* p<0.05; *** p<0.001). […]

TSC-null cells [3] = assay: ROS levels in TSC-null cells; assay type: cell-based; settings: NAC 2 mM + THZ1 30 nM, 48 hr
Source text: as §1
As GSH is the major intracellular antioxidant […], reactive oxygen species (ROS) were next measured in these cells.
In addition, to examine whether glutathione depletion was the proximate cause of apoptosis in THZ1-treated TSC-null cells, cells were treated with GSH reduced ethyl ester (GSH-MEE), a membrane-permeable derivative of GSH.

[4] = system: tumors in a TSC mouse model; assay: SY-1365 in a TSC mouse model; assay type: in vivo; settings: tail vein injection 2×/week at 40 mg/kg for 4 weeks
Procedure: FIG. 16. Effect of SY-1365 on tumor volume in a TSC mouse model. SY-1365 was administered by tail vein injection 2×/week at 40 mg/kg for 4 weeks. Mice were then sacrificed and tumor assessment performed based on histology.

CDK7 [5] = target: T1, CDK7 (Homo sapiens, UniProt P50613); settings: cited from earlier work
CDK7 [6] = target: T1, CDK7; settings: read-out: cellular IC50; cited from earlier work
[7] = compared to THZ1; cited from earlier work
[8] = system: 621-101 cells (TSC2 null angiomyolipoma cell line); assay: 96-well plate proliferation assay (PicoGreen dsDNA); assay type: cell-based; settings: 96 h; 621-101, 4 days; read-out: IC50, inhibition of proliferation
Procedure: (§2) FIG. 1. THZ1 selectively targets TSC-deficient cells. […] Cell viability was assessed after 4 days of treatment using Quant-it PicoGreen dsDNA. Data is represented as mean±SD.
(§3) Multiple studies were performed that support these hypotheses. Most studies to date have been performed on two pairs of cell lines: (i) HCV29, a TSC1 null human bladder cancer cell line, and a corresponding TSC1 addback derivative (TSC1-HCV29), and (ii) 621-101, a TSC2 null angiomyolipoma cell line, and the TSC2 addback derivative […].

[9] = system: HCV29 cells (TSC1 null bladder cancer cell line); assay: as above; assay type: cell-based; settings: Homo sapiens, HCV-29, 96 h; HCV29, 4 days; read-out: IC50, inhibition of proliferation
Procedure: as §2, §3

HCV29 cells [10] = assay: Cell cycle flow cytometry; assay type: cell-based, human; settings: 30 nM, 24 h
TSC1-HCV29 cells [11] = assay: Cell cycle flow cytometry; assay type: cell-based, human; settings: 30 nM, 24 h
HCV29 cells [12] = assay: Apoptosis by flow cytometry, propidium iodide and Annexin V; assay type: cell-based, human; settings: 30 nM, 72 h
Source text: (§4) FIGS. 2A-2B. […] Apoptosis was monitored by flow cytometry using FITC-Annexin V. Each data point represents the mean±SEM of three independent experiments. *** p<0.001 (FIG. 2B) Immunoblot analyses of caspase-3 and actin.

TSC1-HCV29 cells [13] = assay: as above; assay type: cell-based, human; settings: 30 nM, 72 h
Source text: as §4

HCV29 cells [14] = assay: ROS levels; assay type: cell-based, human; settings: THZ1 30 nM, rapamycin 20 nM or both
HCV29 cells [15] = assay: Steady state metabolite analysis; assay type: cell-based, human; settings: 30 nM, 48 h
HCV29 cells [16] = assay: RNA-Seq gene expression, HCV29 vs TSC1-HCV29; assay type: cell-based, human; settings: 30 nM THZ1-treated HCV29 vs THZ1-treated TSC1-HCV29, 6 hours
Source text: However, the inventors focused on expression of all genes involved in the synthesis of reduced glutathione.

HCV29 xenograft tumors = HCV29 xenograft tumors in Foxn1nu mice (Example 1); assay type: in vivo; settings: 10 mg/kg IP twice daily, 30 days
Source text: FIG. 3. […] Treatment groups are indicated. […] Caliper measurements were used to calculate tumor volume.
HCV29 xenograft tumors were induced in immune-deficient Foxn1^nu mice by injection of 10^7 cells into each flank. […] Tumor size was monitored using calipers.

TSC-null cell lines = assay: 96 well plate growth assay, TSC-null cell lines; assay type: cell-based; settings: 120 h, 6 cell line pairs, 5 days
Procedure: (§5) FIGS. 4A-4F. […] Cell number was calculated by measurement of dsDNA content using PicoGreen after 5 days in 96-well plate assays. Each data point represents the mean of 4 measurements. SEM are indicated. […] Apoptotic cell death was quantified by propidium iodide (PI) staining and flow cytometry, and is shown as the percentage of cells that were PI positive. Each data point represents the mean±SEM of three independent experiments. * p<0.05; ** p<0.01; *** p<0.001. […] Beta-actin serves as a loading control.
(§6) FIGS. 5A-5D. […] Beta-actin serves as a loading control. […] Apoptotic cells were quantified by propidium iodide (PI) staining and flow cytometry. Each data point represents the mean±SEM of three independent experiments. * p<0.05; ** p<0.01; *** p<0.001. […] Beta-actin serves as a loading control.

TSC-addback cell lines = assay: 96 well plate growth assay, TSC-addback cell lines; assay type: cell-based; settings: 120 h, 6 cell line pairs, 5 days
Procedure: as §5, §6

TSC null cells = assay: NRF2, GCLC, GCLM, GSR protein expression; assay type: cell-based; settings: 24 hours after THZ1 treatment
[17] = system: kidney cystadenomas in Tsc2+/− A/J strain mice; settings: THZ1 10 mg/kg IP twice a day 29 days; rapamycin 3 mg/kg 3 times per week
Source text: FIGS. 12A-12F. […] (FIG. 12A) Experimental plan. Tsc2+/− A/J strain mice develop kidney cystadenomas with 100% penetrance by 4 months of age with progressive tumor development. […] (FIG. 12B) Number of tumors per kidney in each treatment group (n=kidney number). ***p<0.001. (FIG. 12C) Tumor volume per kidney, with each data point corresponding to one kidney. (FIG. 12D) Renal cystadenoma histology in the treated mice. Representative tumor images are shown for each treatment cohort. Cystadenomas and tumors each are shown at 100×. […] (FIG. 12E) Ki-67 staining to assess cell proliferation in kidney sections from the treated mice. All images are at 100× magnification. Percentage of tumor cells with nuclear immunoreactivity of Ki-67 was scored from six random fields per section. ***p<0.001.
FIGS. 13A-13B. […]
Tsc2+/− A/J strain mice develop kidney cystadenomas by 4 months of age, and provide a native in vivo model that is […] human TSC patients, and is driven by spontaneous second hit events that lead to complete loss of Tsc2 expression and mTORC1 activation (Auricchio et al., 2012; Guo and Kwiatkowski, 2013; Woodrum et al., 2010). […] Rapamycin was dramatically effective in reducing tumor volume by about 99%, as assessed semi-quantitatively on H&E-stained sections (FIG. 12C), similar to what we have seen previously (Guo and Kwiatkowski, 2013). […]

[18] = system: HCV.29-TSC1− xenograft tumors; assay: HCV29-TSC1- xenograft model (Example 2); assay type: in vivo, mice; settings: THZ1 10 mg/kg IP twice a day, rapamycin 3 mg/kg IP 3 days per week, or both
Procedure: FIGS. 14A-14D. […] Tumor size was measured every 3rd day using a digital caliper. […] This was quantified by counting four to six random fields per section. Scale bar=50 μm. **p<0.01, ***p<0.001. […] This was quantified by counting four to six random fields per section. Scale bar 50 μm. not shown (n=6) ***p<0.001. (FIG. 14D) Diagram showing glutathione synthetic pathway and ROS generation in TSC mutant cells. Top, TSC-deficient cells have hyperactive mTORC1, leading to increased ROS, NRF2 induction, and an increase in transcription of glutathione synthetic genes to yield more glutathione to buffer the increased ROS.
FIGS. 15A-15C. (FIG. 15A) Average body weight of TSC1-deficient HCV.29 xenograft mice in each treatment group. […] (n=4 tumors per group). ***p<0.001.
Tumor volumes were measured by calipers. […] Finally, in a cohort of xenograft mice, the treatments were discontinued and tumor growth was observed without intervention after the one month of treatment.

T1 sequence (P50613 whole entry): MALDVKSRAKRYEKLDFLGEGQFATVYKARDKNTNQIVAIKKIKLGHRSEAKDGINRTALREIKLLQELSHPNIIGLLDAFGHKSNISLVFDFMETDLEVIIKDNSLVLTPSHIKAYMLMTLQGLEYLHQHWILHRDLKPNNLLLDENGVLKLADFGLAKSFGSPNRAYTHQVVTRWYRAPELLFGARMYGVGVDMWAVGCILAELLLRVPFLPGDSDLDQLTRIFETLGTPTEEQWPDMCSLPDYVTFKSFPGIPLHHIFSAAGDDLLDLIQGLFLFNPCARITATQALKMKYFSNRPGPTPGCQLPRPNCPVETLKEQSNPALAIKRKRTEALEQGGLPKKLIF
T1 sequence (P51946 whole entry partner): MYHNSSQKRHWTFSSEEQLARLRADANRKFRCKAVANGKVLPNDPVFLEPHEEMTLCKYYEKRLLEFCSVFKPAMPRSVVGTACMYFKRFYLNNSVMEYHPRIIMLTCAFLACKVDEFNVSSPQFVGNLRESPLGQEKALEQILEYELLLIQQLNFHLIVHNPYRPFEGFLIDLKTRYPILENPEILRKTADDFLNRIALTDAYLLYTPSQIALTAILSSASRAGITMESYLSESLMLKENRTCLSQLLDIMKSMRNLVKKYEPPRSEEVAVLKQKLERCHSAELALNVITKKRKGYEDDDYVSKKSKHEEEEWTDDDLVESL
T1 sequence (P51948 whole entry partner): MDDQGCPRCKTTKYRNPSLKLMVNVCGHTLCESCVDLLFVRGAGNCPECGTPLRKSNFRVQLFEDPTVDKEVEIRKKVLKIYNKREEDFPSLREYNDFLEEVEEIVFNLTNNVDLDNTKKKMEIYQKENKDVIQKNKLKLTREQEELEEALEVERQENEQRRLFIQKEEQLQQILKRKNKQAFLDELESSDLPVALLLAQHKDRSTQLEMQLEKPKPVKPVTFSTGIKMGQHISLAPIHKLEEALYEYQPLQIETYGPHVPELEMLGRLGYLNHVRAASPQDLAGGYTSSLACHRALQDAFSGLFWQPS

With `N[C@@H](CCC(=O)N[C@@H](CS)C(=O)NCC(=O)O)C(=O)O` [GSH, glutathione] the “THZ1-induced HCV29 cell death with GSH co-treatment” value (HCV29 cells [1]) was “markedly reduced”.

In the case of `CCOC(=O)CNC(=O)[C@H](CS)NC(=O)CC[C@H](N)C(=O)O` [GSH-MEE, GSH reduced ethyl ester], the “cell death / viability of THZ1-treated TSC-null cells with co-treatment” value (TSC-null cells [2]) was “rescued the viability”.

In the case of `CC(=O)N[C@@H](CS)C(=O)O` [NAC, N-acetyl-cysteine], the “ROS levels in THZ1 treated TSC-null cells with antioxidant” value (TSC-null cells [3]) was “restored ROS levels to near baseline” and the “cell death / viability of THZ1-treated TSC-null cells with co-treatment” value (TSC-null cells [2]) was “significantly reduced the cell death”.

In the case of `CN(C)C/C=C/C(=O)Nc1ccc(C(=O)N[C@@]2(C)CCC[C@@H](Nc3ncc(Cl)c(-c4c[nH]c5ccccc45)n3)C2)nc1` [SY-1365], the “reduction in tumor volume (semi-quantitative, histology)” value [4] is listed as 99%, the “selectivity for CDK7 over other CDKs (e.g., CDK9)” value (CDK7 [5]) is listed as “high selectivity for CDK7 over other CDKs” and the pIC50 (CDK7 [5]; read-out: enzymatic IC50) is listed as about 7.66. The pIC50 (CDK7 [6]) was about 7.70 and the pharmacokinetic properties [7] was “improved pharmacokinetic properties compared to THZ1”.

In the case of `CN(C)C/C=C/C(=O)Nc1ccc(C(=O)Nc2cccc(Nc3ncc(Cl)c(-c4c[nH]c5ccccc45)n3)c2)cc1` [THZ1], the pIC50 [8] was about 7.52, the pIC50 [9] was about 7.52 and the “cells arrested in G2/M-phase” value (HCV29 cells [10]) was 21%. The “cells arrested in G2/M-phase” value (TSC1-HCV29 cells [11]) was 5.5%, the “Annexin V+ cells” value (HCV29 cells [12]) was 37% and the “Annexin V+ cells” value (TSC1-HCV29 cells [13]) was 2%. For the same compound, the ROS levels increase (HCV29 cells [14]) was 2.5 fold, the “Glutathione disulfide (GSS) levels reduced” value (HCV29 cells [15]) was 65% and the “S-adenosyl-L-homocysteine reduction in levels” value (HCV29 cells [15]) was 87%. The “glutathione (GSH) reduction in levels” value (HCV29 cells [15]) was 78%, the “GCLC mRNA levels reduction” value (HCV29 cells [16]) was 82% and the “GCLM mRNA levels reduction” value (HCV29 cells [16]) was 68%. For the same compound, the “GSR mRNA levels reduction” value (HCV29 cells [16]) was 86%, the “body weight and apparent toxicities” value (HCV29 xenograft tumors) was “did not affect body weight or cause other apparent toxicities” and the pIC50 (TSC-null cell lines; read-out: IC50 range, TSC-null cell lines) was 7.41 to 7.80. It also gave a pIC50 (TSC-null cell lines; read-out: median IC50, TSC-null cell lines) of 7.58, a pIC50 (TSC-addback cell lines; read-out: IC50 range, addback lines) of 6.18 to 6.72 and a pIC50 (TSC-addback cell lines; read-out: median IC50, addback lines) of 6.32. For the same compound, the “reduction in expression of each protein (NRF2, GCLC, GCLM, GSR)” value (TSC null cells) was over 90%, the “reduction of tumor volume (semi-quantitative, H&E sections)” value [17] was “about 99%” and the “body weight and toxicity” value [18] was “No effect on body weight or other evidence of toxicity”.

For `CO[C@H]1C[C@@H]2CC[C@@H](C)[C@@](O)(O2)C(=O)C(=O)N2CCCC[C@H]2C(=O)O[C@H]([C@H](C)C[C@@H]2CC[C@@H](O)[C@H](OC)C2)CC(=O)[C@H](C)/C=C(\C)[C@@H](O)[C@@H](OC)C(=O)[C@H](C)C[C@H](C)/C=C/C=C/C=C/1C` [rapamycin], the “reduction of tumor volume (semi-quantitative, H&E sections)” value [17] was “about 99%” and the “body weight and toxicity” value [18] was “No effect on body weight or other evidence of toxicity”.
